The record followed here is patent EP0547705A1, “Pharmacologically active tricyclic benzotriazepine derivatives” (CONSEJO SUPERIOR DE INVESTIGACIONES CIENTIFICAS, priority 1991, dated 1993).

Series [1] in a line: Antagonism of the effects of tetrabenazine (ptosis, akinesia, hypothermia), antidepressant activity. It counts as in vivo. The conditions noted are these: for prevents ptosis: 25 mg/kg p.o., tetrabenazine-induced ptosis; for antagonism to hypothermia produced by tetrabenazine: dose not restated (25 mg/kg p.o. given for ptosis in same sentence). The protocol:
The antidepressant activity of these compounds is measured in terms of their capacity of antagonizing the effects of tetrabenazine (ptosis, akinesia and hypothermia), this action being characteristic of antidepressants such as amitriptiline or thianeptine (New Drugs: Discovery and Development. A.A. Rubin (Ed.), Marcel Dekker, Inc. New York-Basel, 203 (1978.)) For example, 2-[(5,10-dihydro-4,4-dioxo-5-methylthieno[3,4-c][2,1]benzothiazepin-10-yl)oxy]-N-methylethylamine (example 53) and 2-[(4,9-dihydro-2,9-dimethyl-10,10-dioxo-2H-pyrazolo[3,4-c][2,1]-benzothiazepin-4-yl)oxy]-1-ethylpyrrolidine (example 91) prevents ptosis at 25 mg/kg p.o., 100% and 90%, respectively, while the antagonism to hypothermia produced by tetrabenazine when administered is 85 % and 75 %, respectively.

Series [2] in a line: Siegmund test (inhibition of pain). It counts as in vivo. The settings on record: 100 mg/kg p.o. The protocol: (§1) The compounds of formula I are antidepressant, diuretic, antihypertensive, antihistamic, anticonvulsive, antipyretic, anti-inflammatory and/or analgesic agents. […] Exp. Biol. Med. 95, 729 (1957.)] In connection with its activity, this compound is very safe with a LD₅₀ of 1250 mg/kg p.o. in mice.

Series [3] in a line: Acute toxicity LD50 p.o. in mice. The conditions noted are these: mouse, in vivo, po, read-out: LD₅₀. As for the experimental part: as §1

As for `CNCCOC1c2ccccc2N(C)S(=O)(=O)c2cscc21` (stereo not drawn) [example 53, 2-[(5,10-dihydro-4,4-dioxo-5-methylthieno[3,4-c][2,1]benzothiazepin-10-yl)oxy]-N-methylethylamine], in series [1], the prevents ptosis stood at 100% and the “antagonism to hypothermia produced by tetrabenazine” value stood at 85%.
Regarding `CN1c2ccccc2C(O)c2sccc2S1(=O)=O` (stereo not drawn) [example 1, 5,10-dihydro-4,4-dioxo-10-hydroxy-5-methylthieno[3,2-c][2,1]benzothiazepine], the inhibition of pain in series [2] was 92%. Further, in series [3], the LD50 came out at 1250 mg/kg.
Turning to `CN1c2ccccc2C(OCCN2CCCC2)c2cn(C)nc2S1(=O)=O` (stereo not drawn) [example 91], in series [1], the prevents ptosis was 90% and the “antagonism to hypothermia produced by tetrabenazine” value came to 75%.
